# Measured values published in patent US20150368220A1, “PHARMACEUTICAL COMPOSITION FOR TREATING OR PREVENTING STRESS URINARY INCONTINENCE OR MIXED URINARY INCONTINENCE, AND METHOD FOR SCREENING COMPOUND COMPRISED IN SAID PHARMACEUTICAL COMPOSITION” (Astellas Pharma Inc., priority 2012, published 2015).
# Columns and labels:
# [1] = system: SD female rat; test: Effect on urethral pressure, perfusion method (Example 4); format: in vivo
# Procedure: An SD female rat was anesthetized with urethane and allowed to undergo laparotomy, the bladder dome was then incised, and a catheter having a barb at the tip was inserted toward the urethra from the bladder, and ligated and fixed such that the tip of the catheter was positioned around the proximal urethra. Physiological saline was injected at a predetermined flow rate into the urethra through the catheter and the urethral pressure was measured with a pressure transducer. After the urethral pressure was stabilized, compounds dissolved in physiological saline, or physiological saline containing 5% N,N-dimethylacetamide(DMA) and 0.5% Cremophor were intravenously administered at a dose of 1 μg/kg, 10 μg/kg, 100 μg/kg, or 1000 μg/kg and a change in the urethral pressure was measured.
# [2] = molecular target: T1, human MT2 receptor (Homo sapiens, UniProt P49286); test: Intracellular Ca2+ concentration by FLIPR in human MT2 receptor expressing cells (Example 2); format: cell-based; conditions: human MT2 receptor expressing HEK293 cells, 10^-5 M to 10^-12 M, FIGS. 3 and 5
# T1 construct: expressed in transfected cells; vector pCDNA3.1/Zeo; co-transfected with a Gq/i chimeric G protein expression vector
# T1 sequence (P49286 1-362): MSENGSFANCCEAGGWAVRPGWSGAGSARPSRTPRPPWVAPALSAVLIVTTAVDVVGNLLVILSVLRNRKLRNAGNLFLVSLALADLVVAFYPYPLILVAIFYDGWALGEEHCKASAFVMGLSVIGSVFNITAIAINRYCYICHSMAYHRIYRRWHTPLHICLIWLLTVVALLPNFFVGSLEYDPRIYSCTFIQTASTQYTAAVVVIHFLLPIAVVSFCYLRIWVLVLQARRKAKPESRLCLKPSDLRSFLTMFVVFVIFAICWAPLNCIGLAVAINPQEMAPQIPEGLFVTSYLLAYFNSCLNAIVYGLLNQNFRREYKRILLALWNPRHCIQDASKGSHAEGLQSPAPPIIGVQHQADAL
# Procedure: (§1) The expression vectors for human MT1 and MT2 receptors were introduced into HEK293 cells, together with a Gq/i chimeric G protein expression vector, respectively. The incorporation was carried out in accordance with instructions, using a Lipofectoamine (registered trademark) 2000 Reagent (Invitrogen Inc.). Using Zeocin and hygromycin as a resistant agent, the cells were cultured for 15 days in the presence of 0.02 mg/mL and 0.05 mg/mL of the agents, respectively, thereby acquiring a drug-resistant clone.
# (§2) The respective stably expressing cells were dispensed into 96 wells in a poly-D-lysine-coated plate (Falcon) the day before the experiment to give 40,000 cells/well, and cultured in a DMEM (Invitrogen Inc.) medium containing 10% FBS at 37° C. and 5% CO2 overnight. The medium was replaced with a loading buffer (a washing solution containing 4 μM Fluo-4AM (Dojindo Co.) (Hank's balanced salt solution (HBSS), 20 mM HEPES-NaOH, 2.5 mM probenecid)) and cultured at 37° C. and 5% CO2 for 1 hour.
# [3] = molecular target: T2, human MT1 receptor (Homo sapiens, UniProt P48039); test: Intracellular Ca2+ concentration by FLIPR in human MT1 receptor expressing cells (Example 2); format: cell-based; conditions: human MT1 receptor expressing HEK293 cells, 10^-5 M to 10^-12 M, FIGS. 2 and 4
# T2 construct: expressed in transfected cells; vector pCDNA3.1/Zeo; co-transfected with a Gq/i chimeric G protein expression vector
# T2 sequence (P48039 whole entry): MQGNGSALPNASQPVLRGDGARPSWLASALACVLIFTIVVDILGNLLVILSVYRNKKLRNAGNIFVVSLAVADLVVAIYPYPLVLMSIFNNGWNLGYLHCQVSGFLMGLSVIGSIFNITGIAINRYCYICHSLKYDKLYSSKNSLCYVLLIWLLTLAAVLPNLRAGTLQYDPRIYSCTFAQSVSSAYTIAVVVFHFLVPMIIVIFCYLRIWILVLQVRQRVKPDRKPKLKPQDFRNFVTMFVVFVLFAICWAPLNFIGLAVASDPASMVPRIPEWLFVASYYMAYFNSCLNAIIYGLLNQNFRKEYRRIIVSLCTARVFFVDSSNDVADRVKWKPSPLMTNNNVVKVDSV
# Procedure: as §1, §2
# [4] = system: isolated urethra; test: Urethra contracting action using isolated urethra (Example 3); conditions: isolated urethra of SD female rat, cumulative 10^-5 M to 10^-12 M, FIGS. 6 and 7
# Procedure: The urethra was isolated from an SD female rat having a body weight of 100 g to 500 g. The isolated urethra was incised vertically and then made into strip-shaped specimens having a width of about 3 mm. The specimens were suspended in a 10 mL tissue bus filled with a Krebs—Henseleit solution (pH 7.4) in the circular muscle direction. The Krebs—Henseleit solution was aerated at 95% O2 and 5% CO2, and warmed at 37° C. The resting tension was set to 0.5 g and the isometric contraction was recorded. After the resting tension was stabilized, a 10 μM phenylephrine solution was added thereto to cause contraction.
# [5] = system: isolated uterus; test: Isolated uterus contraction (Example 6); conditions: isolated uterus of SD female rat, cumulative 10^-5 M to 10^-11 M
# Source text: (§3) (1) The bladder and uterus were isolated from an SD female rat having a body weight of 100 g to 500 g. For the isolated bladder, the parts below the parietal region and the triangular portion were resected to make only the body portion into a ring state, and further, one side of the tissue in the ring state was cut to a band-shaped tissue. The bladder in the band shape was isolated parallel to the median axis of the bladder to prepare strip-shaped specimens having a length of about 10 mm and a width of about 3 mm. The specimens were suspended in a 10 mL tissue bus filled with a Krebs-Henseleit solution (pH 7.4) at a resting tension of 0.5 g and the isometric contraction was recorded. For the isolated uterus, the edge portion of the uterus was cut and incised vertically, whereby a strip-shaped specimen having a width of about 6 mm was then prepared. The specimens were suspended in a 10 mL tissue bus filled with a Krebs—Henseleit solution (pH 7.4) at a resting tension of 0.5 g and the isometric contraction was recorded. […] For the bladder specimen, after the resting tension was stabilized, a 60 mM KCl solution or a 10 μM carbachol solution was added thereto to cause contraction. The specimens were washed and stabilized, and then the compounds were cumulatively administered.
# [6] = system: isolated bladder; test: Isolated bladder contraction (Example 6); conditions: isolated bladder of SD female rat, cumulative addition
# Source text: as §3
# [7] = system: SD female rat; test: Effect on rat blood pressure (Example 6); format: in vivo; conditions: intravenous, at a dose for increasing the urethral pressure, FIGS. 21 and 22
# Source text: An SD female rat was anesthetized with urethane and allowed to undergo laparotomy, and then a catheter was mounted in the bladder dome for urine leakage in the bladder. Further, a catheter was mounted in the femoral vein for the administration of a compound and a catheter was mounted in the carotid artery for the measurement of blood pressure described in Example 6 as described later. A microchip transducer catheter (Milar Instruments) was inserted toward the bladder from the external urethral meatus for the measurement of the urethral pressure, and fixed such that the transducer portion was positioned around the portion at which the urethral pressure was maximized (10.0 mm to 15.0 mm from the external urethral meatus). The catheter mounted in the carotid artery was attached to a pressure transducer and the blood pressure was measured.
# (2) In the experiment for measuring the urethral pressure in Example 4, the blood pressure was measured simultaneously. After the urethral pressure and the blood pressure were stabilized, the compound was administered and a change in the blood pressure was measured.
# [8] = system: SD female rat; test: Effect on urethral pressure, microchip method (Example 4); format: in vivo; conditions: intravenous, anesthetized SD female rat, FIGS. 8 and 9
# Source text: An SD female rat was anesthetized with urethane and allowed to undergo laparotomy, and then a catheter was mounted in the bladder dome for urine leakage in the bladder. Further, a catheter was mounted in the femoral vein for the administration of a compound and a catheter was mounted in the carotid artery for the measurement of blood pressure described in Example 6 as described later. […] The catheter mounted in the carotid artery was attached to a pressure transducer and the blood pressure was measured.
# [9] = molecular target: T1, human MT2 receptor; test: Effect of luzindole on ramelteon-induced intracellular Ca2+ increase in human MT2 receptor expressing cells (Example 5); format: cell-based; conditions: for intracellular Ca^2+ concentration increasing action: action by 10^-6 M ramelteon = 100%
# Procedure: (§4) The respective stably expressing cells were dispensed into 96 wells in a poly-D-lysine-coated plate (Falcon) the day before the experiment to give 40,000 cells/well, and cultured in a DMEM (Invitrogen Inc.) medium containing 10% FBS at 37° C. and 5% CO2 overnight. The medium was replaced with a loading buffer (a washing solution containing 4 μM Fluo-4AM (Dojindo Co.) (Hank's balanced salt solution (HBSS), 20 mM HEPES-NaOH, 2.5 mM probenecid)) and cultured at 37° C. and 5% CO2 for 1 hour. Thereafter, the cells were washed with a plate washer (EL×405, BIO-TEK Instrument Inc.) having a washing solution set therein, and set in an intracellular Ca concentration measuring system (FLIPR (registered trademark), Molecular Device Inc.). Luzindole was preliminarily dissolved in a washing solution, diluted to a final concentration of 10^−5 M to 10^−7 M, and left to stand at room temperature for 5 minutes. Ramelteon was preliminarily dissolved in a washing solution and diluted to a final concentration of 10^−5 M to 10^−11 M, the resultant was set in an FLIPR (registered trademark) device together with the cells after leaving to stand for 5 minutes after the addition of luzindole, the cells were added to the device, and a change in the intracellular Ca^2+ concentration at that time was measured.
# [10] = molecular target: T2, human MT1 receptor; test: Effect of luzindole on ramelteon-induced intracellular Ca2+ increase in human MT1 receptor expressing cells (Example 5); format: cell-based; conditions: for intracellular Ca^2+ concentration increasing action: action by 10^-6 M ramelteon = 100%
# Procedure: as §4
# [11] = system: isolated urethra; test: Effect of luzindole on urethra contracting action of ramelteon in isolated urethra (Example 5); design: species or system rat; conditions: for isolated urethra contracting action: contraction by 1 μM ramelteon at first time = 100%
# Procedure: The urethra was isolated from an SD female rat having a body weight of 100 g to 500 g. The isolated urethra was incised vertically and then made into strip-shaped specimens having a width of about 3 mm. The specimens were suspended in a 10 mL tissue bus filled with a Krebs-Henseleit solution (pH 7.4) in the circular muscle direction or the longitudinal muscle direction. […] The resting tension was set to 0.5 g and the isometric contraction was recorded. After the resting tension was stabilized, a 10 μM phenylephrine solution was added thereto to cause contraction. After washing and stabilizing, the compound (ramelteon) was cumulatively added to a final concentration of 10^−5 M to 10^−12 M and the contraction response was measured. After washing and stabilizing, luzindole was added, after 20 minutes, ramelteon was cumulatively added again, and the contraction response was measured.
# [12] = intravenous, anesthetized SD female rat, FIGS. 10 to 14
# [13] = final concentration of ramelteon 10^-5 M
structure (smiles),measurement,setting,value
"COc1ccc2cccc(CCNC(C)=O)c2c1 [agomelatine, N-[2-(7-methoxynaphth-1-yl)ethyl]acetamide]",urethral pressure increasing action,[1]; [12],increased the urethral pressure
same,intracellular Ca^2+ concentration (melatonin receptor activating action),[2],increased
same,intracellular Ca^2+ concentration (melatonin receptor activating action),[3],increased
same,urethra contracting action,[4],contracted the isolated urethra
"CCC(=O)NC[C@@H]1C[C@H]1c1cccc2c1CCO2 [tasimelteon, (−)-(trans)-N-{[2-(2,3-dihydrobenzofuran-4-yl)cyclopropan-l-yl]methyl}propanamide]",urethral pressure increasing action,[1]; [12],increased the urethral pressure
same,intracellular Ca^2+ concentration (melatonin receptor activating action),[2],increased
same,intracellular Ca^2+ concentration (melatonin receptor activating action),[3],increased
same,urethra contracting action,[4],contracted the isolated urethra
"COc1cc2c([C@@H](C)CNC(C)=O)c[nH]c2cc1Cl [TIK-301, N-[(2R)-2-(6-chloro-5-methoxy-1H-indol-3-yl)propyl]acetamide]",urethral pressure increasing action,[1]; [12],increased the urethral pressure
same,intracellular Ca^2+ concentration (melatonin receptor activating action),[2],increased
same,intracellular Ca^2+ concentration (melatonin receptor activating action),[3],increased
same,urethra contracting action,[4],contracted the isolated urethra
COc1ccc2[nH]cc(CCNC(C)=O)c2c1 [melatonin],contraction action on the isolated uterus,[5],did not exhibit a contraction action
same,urethral pressure increasing action,[1]; [12],increased the urethral pressure
same,contraction action on the isolated bladder,[6],did not exhibit a contraction action
same,effect on blood pressure (mean blood pressure),[7],did not increase the blood pressure
same,urethral pressure increasing action,[8],increased the urethral pressure
same,urethra contracting action,[4],contracted the isolated urethra
COc1ccc(OC)c(C(O)CN)c1 (stereo not shown) [ST-1059],urethral pressure increasing action,"[1]; rat, dose 0.01 mg/kg",4.9±1.1 mmHg
"CC(=O)NCCc1c(Cc2ccccc2)[nH]c2ccccc12 [luzindole, N-[2-[2-(phenylmethyl)-1H-indol-3-yl]ethyl]acetamide]",inhibition of the increase in intracellular Ca^2+ concentration by ramelteon,"[9]; MT2 receptor expressing cells, FIG. 16",inhibited
same,intracellular Ca^2+ concentration increasing action,"[9]; MT2 receptor expressing cells, ramelteon 10^-5 M with 10^-5 M luzindole",52%
same,intracellular Ca^2+ concentration increasing action,"[9]; MT2 receptor expressing cells, ramelteon 10^-5 M with 10^-6 M luzindole",60%
same,intracellular Ca^2+ concentration increasing action,"[9]; MT2 receptor expressing cells, ramelteon 10^-5 M with 10^-7 M luzindole",62%
same,"inhibiting action, MT2 versus MT1 receptor expressing cells",[9]; comparison of MT2 and MT1 receptor expressing cells,stronger in the MT2 receptor expressing cells than in the MT1 receptor expressing cells
same,inhibition of the increase in intracellular Ca^2+ concentration by ramelteon,"[10]; MT1 receptor expressing cells, FIG. 15",inhibited
same,intracellular Ca^2+ concentration increasing action,"[10]; MT1 receptor expressing cells, ramelteon 10^-5 M with 10^-5 M luzindole",94%
same,intracellular Ca^2+ concentration increasing action,"[10]; MT1 receptor expressing cells, ramelteon 10^-5 M with 10^-6 M luzindole",97%
same,intracellular Ca^2+ concentration increasing action,"[10]; MT1 receptor expressing cells, ramelteon 10^-5 M with 10^-7 M luzindole",100%
same,inhibiting action on the MT1 receptor,[10]; [13],substantially did not exhibit an inhibiting action
same,inhibiting action on isolated urethra contracting action,[11]; [13],substantially did not exhibit an inhibiting action
same,isolated urethra contracting action,[11]; ramelteon 10^-5 M with 10^-5 M luzindole,78%
same,isolated urethra contracting action,[11]; ramelteon 10^-5 M with 10^-6 M luzindole,94%
same,isolated urethra contracting action,[11]; ramelteon 10^-5 M with 10^-7 M luzindole,101%
same,inhibition of isolated urethra contracting action by ramelteon,"[11]; treatment with luzindole 10^-7 M to 10^-5 M, FIG. 17",inhibited in a concentration-dependent manner
